Bridge positions count the residues as written; N and C are the ends. Ends that are not written are not given here. * marks the point of attachment. Biotin = O=C1N[C@H]2[C@H](CS[C@H]2CCCCC(=O)*)N1

The text below walks through data of patent US10359432B2, “Methods for detecting antibodies” (The Regents of the University of California, priority 2008, dated 2019).

One test concerns primary CLL cells. The experiment in a line: Peptide inhibition of CLL cell staining by labeled mAb, flow cytometry. The format is cell-based, human. The settings on record: for Staining of primary CLL cells by fluorescently labeled mAb: no peptide. As to the method: The shaded histogram represents staining with labeled human IgG.
After informed consent was obtained per the Declaration of Helsinki, blood samples were collected from patients at the University of California, San Diego (UCSD) Medical Center who satisfied diagnosis and immunophenotypic criteria for common B-cell CLL.
Subsequently, cells were washed two times with 100 μl FACS-wash (PBS, 5% FCS and 0.5% sodium azide) and fixed with 100 μl with 3.7% formaldehyde in PBS.
There was no effect on the binding activity of the other mAb (data not shown).
On the technique in general: A flow cytometer gives signals particle by particle.

In another test the target is alemtuzumab. Kind of test: Antibody-peptide binding kinetics, SkiPro interferometer, whole mAb. Conditions: whole molecule alemtuzumab. An excerpt: (§1) FIGS. 7A to 7D include graphical illustrations showing the kinetics of antibody-peptide binding. Biotinylated peptides were captured onto streptavidin coated nanoporous surfaces. The binding of the mAb or their Fab fragments was monitored on a SkiPro™ interferometer. The binding curves were globally fit to a single binding site association/dissociation model to derive Kon, Koff, and Kd values.
(§2) Kinetics of antibody-peptide binding were studied using SkiPro™ Biomolecular Interaction technology platform on a SkiPro™ interferometer equipped with a 2-channel flow cell and an autosampler (Silicon Kinetics Inc. San Diego, Calif.). All reagents were purchased from Sigma-Aldrich (St. Louis, Mo.). All peptides were incubated with oxidizing agent Sodium Tetrathionate at 10 mM in PBS for 1 hour immediately before binding experiments. Biotinylated peptides were diluted to 5 μM in PBS/0.05% BSA and immobilized on Streptavidin-coated SkiSensor™ Biochips for 10 minutes at 4 μl/min flow rate. […] Concentration series of antibodies and antibody Fab fragments were prepared as twofold dilutions in PBS/0.05% BSA. Binding was carried out for 10 minutes followed by 20 minutes dissociation. For all sensorgrams reference channel data was subtracted from the sample channel. The resulting multi-concentration series of binding curves were globally fit to a single binding site association/dissociation model.
(§3) Biotinylated peptides were used for kinetic binding measurements using nano-pore optical interferometry (FIGS. 7A-7D).

Test [1] deals with Fab fragments of alemtuzumab. The experiment in a line: Antibody-peptide binding kinetics, SkiPro interferometer, Fab fragments. As to the method: as §1
Antibodies were prepared as follows. Alemtuzumab (Genzyme, Cambridge, Mass.) and rituximab (Genentech, San Francisco, Calif.) were obtained from the UCSD Cancer Center pharmacy. The antibodies were fluorescently labeled using the Zenon® R-Phycoerythrin Human IgG labeling kit, Zenon® Alexa Fluor® 488 Human IgG labeling and Zenon® Alexa Fluor® 488 protein labeling kits (Invitrogen, Carlsbad, Calif.). For kinetic studies, Fab fragments of each mAb were prepared by papain digestion using a Fab preparation kit (Thermo Fisher Scientific, Rockford, Ill.) as per manufacturers instructions.
as §2, §3

For the substance alemtuzumab [reference compound], the “Staining of primary CLL cells by fluorescently labeled mAb” value with primary CLL cells was “robust staining”.

For “ACPYSNPSLCGGK (ACPYSNPSLCGGK(Biotin); disulfide 2-10 (inferred)) [pRTX-10B]”, in the test on primary CLL cells (peptide at 25,000 molar excess), the “CLL cell labeling by fluorescently labeled rituximab with peptide added” value is reported as “largely abrogated”.

With rituximab [reference compound], in the test on primary CLL cells, the “Staining of primary CLL cells by fluorescently labeled mAb” value is listed as “weak”.

On to ACGSLSPSSC [Cp-1], for which the Kd (commonly a measure of binding affinity in units of concentration) on alemtuzumab stood at 163 nM; in test [1], 2050 nM. Moreover, the Koff with alemtuzumab worked out at 0.00132 s⁻¹; in test [1], 0.00505 s⁻¹. The Kon amounted to 8130 M⁻¹ s⁻¹ in the test with alemtuzumab (biotinylated peptide on streptavidin surface) and 2460 M⁻¹ s⁻¹ in test [1].

On to “ACGSLSPSSCGGK (ACGSLSPSSCGGK(Biotin); disulfide 2-10 (inferred)) [pCp-1B]”, for which the “CLL cell labeling by fluorescently labeled alemtuzumab with peptide added” value with primary CLL cells (peptide at 25,000 molar excess) was “largely abrogated”.
